molecular target: human α2δ-1 subunit of Cav2.2 calcium channel (Homo sapiens (Human), UniProt P54289); assay: Binding assay to human α2δ-1 subunit of Cav2.2 calcium channel ([3H]-Gabapentin); conditions: binding to α2δ-1, [3H]-Gabapentin; read-out: Ki (nM) α2δ-1
Experimental: Binding Assay to Human α2δ-1 Subunit of Cav2.2 Calcium Channel.
NSB (non specific binding) was measured by adding 10 μM pregabalin. After 60 min incubation at 27° C., binding reaction was terminated by filtering through Multiscreen GF/C (Millipore) presoaked in 0.5% polyethyleneimine in Vacuum Manifold Station, followed by 3 washes with ice-cold filtration buffer containing 50 mM Tris-HCl, pH 7.4.
Filter plates were dried at 60° C. for 1 hour and 30 μl of scintillation cocktail were added to each well before radioactivity reading.

Chain of human α2δ-1 subunit of Cav2.2 calcium channel (P54289 25-1103): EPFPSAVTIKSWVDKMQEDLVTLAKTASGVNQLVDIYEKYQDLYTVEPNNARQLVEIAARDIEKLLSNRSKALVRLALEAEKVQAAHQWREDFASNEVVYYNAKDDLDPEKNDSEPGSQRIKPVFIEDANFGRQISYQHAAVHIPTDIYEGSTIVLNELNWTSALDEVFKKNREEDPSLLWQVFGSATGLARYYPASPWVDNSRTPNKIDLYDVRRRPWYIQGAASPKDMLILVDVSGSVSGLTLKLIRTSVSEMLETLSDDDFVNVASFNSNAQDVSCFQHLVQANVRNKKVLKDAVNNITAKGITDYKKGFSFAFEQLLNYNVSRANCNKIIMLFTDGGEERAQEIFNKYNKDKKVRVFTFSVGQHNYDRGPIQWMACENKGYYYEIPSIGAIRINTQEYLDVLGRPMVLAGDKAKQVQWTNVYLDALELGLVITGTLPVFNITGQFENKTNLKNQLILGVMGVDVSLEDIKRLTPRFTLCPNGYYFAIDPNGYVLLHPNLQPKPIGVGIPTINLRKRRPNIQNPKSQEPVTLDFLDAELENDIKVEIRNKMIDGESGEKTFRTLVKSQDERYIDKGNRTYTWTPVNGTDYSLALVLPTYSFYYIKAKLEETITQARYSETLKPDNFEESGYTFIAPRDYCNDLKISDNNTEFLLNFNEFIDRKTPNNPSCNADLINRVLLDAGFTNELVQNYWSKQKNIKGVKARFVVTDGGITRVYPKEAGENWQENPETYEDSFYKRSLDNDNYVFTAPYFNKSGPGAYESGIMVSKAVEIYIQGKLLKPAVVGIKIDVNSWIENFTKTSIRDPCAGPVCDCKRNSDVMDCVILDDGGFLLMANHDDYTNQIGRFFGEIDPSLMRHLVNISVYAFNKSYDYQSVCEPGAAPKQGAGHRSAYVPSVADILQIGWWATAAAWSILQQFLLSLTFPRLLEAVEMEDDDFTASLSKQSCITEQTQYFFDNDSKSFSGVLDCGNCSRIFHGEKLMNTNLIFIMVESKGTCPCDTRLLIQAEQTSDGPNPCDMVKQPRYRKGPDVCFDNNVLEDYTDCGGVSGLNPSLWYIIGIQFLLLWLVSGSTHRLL

| Compound | Ki [nM] |
| --- | --- |
| CCNc1ncc2c(n1)N(C)CCN(c1cccc(-n3cc(CN(CC4CC4)CC4CC4)nn3)c1)C2=O [Example 245, 6-(3-(4-((bis (cyclopropylmethyl)amino)methyl)-1H-1,2,3-triazol-1-yl)phenyl)-2-(ethylamino)-9-methyl-6,7,8,9-tetrahydro-5H-pyrimido[4,5-e][1,4]diazepin-5-one] | 500 to 3000 |
| CCNc1ncc2c(n1)N(C)CCN(c1cccc(OCCCN(C)C)c1)C2=O [Example 257, 6-(3-(3-(dimethylamino)propoxy)phenyl)-2-(ethylamino)-9-methyl-6,7,8,9-tetrahydro-5H-pyrimido[4,5-e][1,4]diazepin-5-one] | 100 to 500 |
| CCNc1ncc2c(n1)N(C)CCN(c1cccc(Br)c1)C2=O [Example 112, 6-(3-bromophenyl)-2-(ethylamino)-9-methyl-6,7,8,9-tetrahydro-5H-pyrimido[4,5-e][1,4]diazepin-5-one] | > 3000 |
| CCNc1ncc2c(n1)N(C)CCN(c1cccc(OCCCN(C)C(=O)OC(C)(C)C)c1)C2=O [Example 88, tert-butyl (3-(3-(2-(ethylamino)-9-methyl-5-oxo-5,7,8,9-tetrahydro-6H-pyrimido[4,5-e][1,4]diazepin-6-yl)phenoxy)propyl) (methyl)carbamate] | > 3000 |
| Cc1ncc2c(n1)N(C)CCN(c1cccc(CO[C@H](CCN(C)C(=O)OC(C)(C)C)c3ccccc3)c1)C2=O [Example 142, tert-Butyl (R)-(3-((3-(2,9-dimethyl-5-oxo-5,7,8,9-tetrahydro-6H-pyrimido[4,5-e][1,4]diazepin-6-yl)benzyl)oxy)-3-phenylpropyl)(methyl)carbamate] | > 3000 |
| CSc1ncc2c(n1)N(C)CCN(c1ccc(O[Si](C)(C)C(C)(C)C)cc1)C2=O [Example 38, 6-(4-((tert-butyldimethyl-silyl)oxy)phenyl)-9-methyl-2-(methylthio)-6,7,8,9-tetrahydro-5H-pyrimido[4,5-e][1,4]diazepin-5-one] | > 3000 |
| CCNc1ncc2c(n1)N(CC)CCN(c1cccc(-c3nnc(C)o3)c1)C2=O [Example 107, 9-ethyl-2-(ethylamino)-6-(3-(5-methyl-1,3,4-oxadiazol-2-yl)phenyl)-6,7,8,9-tetrahydro-5H-pyrimido[4,5-e][1,4]diazepin-5-one] | 100 to 500 |
| CSc1ncc2c(n1)N(C)CCN(c1cccc(COC(CN(C)C(=O)OCC[Si](C)(C)C)c3ccccc3)c1)C2=O (centres unmarked) [Example 19, 2-(trimethyl-silyl)ethyl methyl(2-((3-(9-methyl-2-(methylthio)-5-oxo-5,7,8,9-tetrahydro-6H-pyrimido[4,5-e][1,4]diazepin-6-yl)benzyl)oxy)-2-phenylethyl) carbamate] | > 3000 |
| CCNc1ncc2c(n1)N(C)CCN(Cc1ccc(CNC)cc1)C2=O [Example 202, 2-(ethylamino)-9-methyl-6-(4-((methylamino)methyl)benzyl)-6,7,8,9-tetrahydro-5H-pyrimido[4,5-e][1,4]diazepin-5-one] | 500 to 3000 |
| CCN1CCN(c2cccc(-c3nnc(C)o3)c2)C(=O)c2cnc(SC)nc21 [Example 30, 9-ethyl-6-(3-(5-methyl-1,3,4-oxadiazol-2-yl)phenyl)-2-(methylthio)-6,7,8,9-tetrahydro-5H-pyrimido[4,5-e][1,4]diazepin-5-one] | > 3000 |
| CCNc1ncc2c(n1)N(C)CCN(c1cccc(C3CCN(Cc4ccccc4)CC3)c1)C2=O [Example 259, 6-(3-(1-benzylpiperidin-4-yl)phenyl)-2-(ethylamino)-9-methyl-6,7,8,9-tetrahydro-5H-pyrimido[4,5-e][1,4]diazepin-5-one] | 100 to 500 |
| CN(CC[C@@H](OCc1cccc(N2CCN(C)c3nc(N(C)C)ncc3C2=O)c1)c1ccccc1)C(=O)OC(C)(C)C [Example 131, tert-butyl (R)-(3-((3-(2-(dimethylamino)-9-methyl-5-oxo-5,7,8,9-tetrahydro-6H-pyrimido[4,5-e][1,4]diazepin-6-yl)benzyl)oxy)-3-phenylpropyl)(methyl) carbamate] | > 3000 |
| CSc1ncc2c(n1)N(C)CCN(c1cccc(Cn3cc(CN(C)C(=O)OC(C)(C)C)nn3)c1)C2=O [Example 44, tert-butyl methyl((1-(3-(9-methyl-2-(methylthio)-5-oxo-5,7,8,9-tetrahydro-6H-pyrimido[4,5-e][1,4]diazepin-6-yl)benzyl)-1H-1,2,3-triazol-4-yl)methyl) carbamate] | > 3000 |
| CCNc1ncc2c(n1)N(C)CCN(c1cccc(Br)c1)C2=O [Example 311, 6-(3-bromophenyl)-2-(ethylamino)-9-methyl-6,7,8,9-tetrahydro-5H-pyrimido[4,5-e][1,4]diazepin-5-one] | 500 to 3000 |
| CCNc1ncc2c(n1)N(C)CCN(c1cccc(OC(CNC)C(C)C)c1)C2=O (centres unmarked) [Example 158, 2-(ethylamino)-9-methyl-6-(3-((3-methyl-1-(methylamino)butan-2-yl)oxy)phenyl)-6,7,8,9-tetrahydro-5H-pyrimido[4,5-e][1,4]diazepin-5-one] | 500 to 3000 |
| CSc1ncc2c(n1)N(C)CCN(c1cccc(OC(CCN(C)C(=O)OC(C)(C)C)c3cccnc3)c1)C2=O (centres unmarked) [Example 53, tert-butyl methyl(3-(3-(9-methyl-2-(methylthio)-5-oxo-5,7,8,9-tetrahydro-6H-pyrimido[4,5-e][1,4]diazepin-6-yl)phenoxy)-3-(pyridin-3-yl)propyl) carbamate] | > 3000 |
| Cc1cc2c(cn1)C(=O)N(c1cccc(OC(CCN(C)C(=O)OCC[Si](C)(C)C)c3cccs3)c1)CCN2C (centres unmarked) [Example 302, 2-(trimethylsilyl)ethyl (3-(3-(1,8-dimethyl-5-oxo-1,2,3,5-tetrahydro-4H-pyrido[4,3-e][1,4]diazepin-4-yl)phenoxy)-3-(thiophen-2-yl)propyl) (methyl)carbamate] | > 3000 |
| CCNc1ncc2c(n1)N(C)CCN(c1ccccc1OC(CNC)c1ccccc1)C2=O (centres unmarked) [Example 338, 2-(ethylamino)-9-methyl-6-(2-(2-(methylamino)-1-phenylethoxy)phenyl)-6,7,8,9-tetrahydro-5H-pyrimido[4,5-e][1,4]diazepin-5-one] | > 3000 |
| CCNc1ncc2c(n1)N(C)CCN(Cc1ccccc1OC(CNC)c1ccccc1)C2=O (centres unmarked) [Example 410, 2-(ethylamino)-9-methyl-6-(2-(2-(methylamino)-1-phenylethoxy)benzyl)-6,7,8,9-tetrahydro-5H-pyrimido[4,5-e][1,4]diazepin-5-one] | > 3000 |
| CCNc1ncc2c(n1)N(C)CCN(c1cccc(C3CCN(C)CC3)c1)C2=O [Example 260, 2-(ethylamino)-9-methyl-6-(3-(1-methylpiperidin-4-yl)phenyl)-6,7,8,9-tetrahydro-5H-pyrimido[4,5-e][1,4]diazepin-5-one] | 100 to 500 |
| CCNc1ncc2c(n1)N(C)CCN(c1cccc(C#N)c1)C2=O [Example 110, 3-(2-(ethylamino)-9-methyl-5-oxo-5,7,8,9-tetrahydro-6H-pyrimido[4,5-e][1,4]diazepin-6-yl)benzonitrile] | > 3000 |
| CCNc1ncc2c(n1)N(C)CCN(c1ccc(OC(CN(C)C(=O)OC(C)(C)C)c3ccccc3)cc1)C2=O (centres unmarked) [Example 76, tert-butyl (2-(4-(2-(ethylamino)-9-methyl-5-oxo-5,7,8,9-tetrahydro-6H-pyrimido[4,5-e][1,4]diazepin-6-yl)phenoxy)-2-phenylethyl)(methyl) carbamate] | > 3000 |
| CCNc1ncc2c(n1)N(C)CCN(c1cccc(CN(C)C(=O)OC(C)(C)C)c1)C2=O [Example 94, tert-butyl (3-(2-(ethylamino)-9-methyl-5-oxo-5,7,8,9-tetrahydro-6H-pyrimido[4,5-e][1,4]diazepin-6-yl)benzyl)(methyl) carbamate] | > 3000 |
| CSc1ncc2c(n1)N(C)CCN(c1cccc(COCC(c3ccccc3)N(C)C(=O)OC(C)(C)C)c1)C2=O (centres unmarked) [Example 18, tert-butyl methyl(2-((3-(9-methyl-2-(methylthio)-5-oxo-5,7,8,9-tetrahydro-6H-pyrimido[4,5-e][1,4]diazepin-6-yl)benzyl)oxy)-1-phenylethyl) carbamate] | > 3000 |
| CCNc1ncc2c(n1)N(C)CCN(c1cccc(OC(CCN(C)C(=O)OC(C)(C)C)c3ccccn3)c1)C2=O (centres unmarked) [Example 128, tert-butyl (3-(3-(2-(ethylamino)-9-methyl-5-oxo-5,7,8,9-tetrahydro-6H-pyrimido[4,5-e][1,4]diazepin-6-yl)phenoxy)-3-(pyridin-2-yl)propyl)(methyl) carbamate] | > 3000 |
| CCNc1ncc2c(n1)N(C)CCN(c1cccc(COC(CCNCCF)c3cccs3)c1)C2=O (centres unmarked) [Example 345, 2-(ethylamino)-6-(3-((3-((2-fluoroethyl)amino)-1-(thiophen-2-yl)propoxy)methyl)phenyl)-9-methyl-6,7,8,9-tetrahydro-5H-pyrimido[4,5-e][1,4]diazepin-5-one] | 100 to 500 |
| CCNc1ncc2c(n1)N(C)CCN(Cc1cccc(OC(CCNC)c3ccccc3)c1)C2=O (centres unmarked) [Example 407, 2-(ethylamino)-9-methyl-6-(3-(3-(methylamino)-1-phenylpropoxy)benzyl)-6,7,8,9-tetrahydro-5H-pyrimido[4,5-e][1,4]diazepin-5-one] | 100 to 500 |
| CN(CC[C@@H](OCc1cccc(N2CCN(C)c3ncncc3C2=O)c1)c1ccccc1)C(=O)OC(C)(C)C [Example 145, tert-Butyl (R)-methyl(3-((3-(9-methyl-5-oxo-5,7,8,9-tetrahydro-6H-pyrimido[4,5-e][1,4]diazepin-6-yl)benzyl)oxy)-3-phenylpropyl)carbamate] | > 3000 |
| CNCCC(Oc1ccc(CN2CCN(C)c3nc(OC)ncc3C2=O)cc1)c1cc(C)cs1 (centres unmarked) [Example 396, 2-methoxy-9-methyl-6-(4-(3-(methylamino)-1-(4-methylthiophen-2-yl)propoxy)benzyl)-6,7,8,9-tetrahydro-5H-pyrimido[4,5-e][1,4]diazepin-5-one] | 100 to 500 |
